Test results published in ChEMBL document CHEMBL4699396, “Macrocyclic peptidomimetics as inhibitors of insulin-regulated aminopeptidase (IRAP)” (RSC Med Chem, 2020).

System: Insulin-regulated aminopeptidase (Homo sapiens)
Assay: Binding affinity to recombinant full length human IRAP expressed in HEK293T cells assessed as binding free energy

| Structure (SMILES) | deltaG [kcal/mol] |
| --- | --- |
| N[C@H]1CC/C=C/CC[C@@H](C(=O)NCc2ccccc2CC(=O)O)NC(=O)C[C@H](Cc2ccc(O)cc2)NC1=O | -12.4 |
| N[C@H]1CC/C=C\CC[C@@H](C(=O)NCc2ccccc2CC(=O)O)NC(=O)C[C@H](Cc2ccc(O)cc2)NC1=O | -10.7 |
